Experimental data: patent US10703748B2, “Diazanaphthalen-3-yl carboxamides and preparation and use thereof” (Samumed, LLC, priority 2017, dated 2020)

Experiments:
[1] = system: Wnt-responsive Sp5-Luc reporter in SW480 colon carcinoma cells; assay: Screening assay for Wnt activity (Sp5-Luc reporter gene assay); details: Homo sapiens; for EC50: SW480; for inhibition at 10 µM: SW480, read-out: percent inhibition at 10 μM
IL-6 = IL-6 inhibition in LPS-stimulated human peripheral blood mononuclear cells (HTRF); details: Homo sapiens, PBMC; for EC50: 22 h; for inhibition at 10 µM: read-out: percentage in parentheses after EC50 >10
[2] = system: α-smooth muscle actin (aSMA) positive LL29 cells; assay: Inhibition of the fibrotic process: αSMA staining in TGF-β1 treated LL29 fibroblasts from IPF patients; details: Homo sapiens, Fibroblast; for EC50: 96 h; for inhibition at 10 µM: read-out: percentage in parentheses after EC50 >10
Procedure: Each compound was dissolved in DMSO as a 10 mM stock and used to prepare compound source plates. […] LL29 cells were plated at 1,500 cells/well in 70 μL/well F12 medium supplemented with 1% Fetal Bovine Serum. […] Wells treated with TGF-β1 and containing DMSO were used as positive control, and cells with only DMSO were negative control. Cells were incubated at 37° C. and 5% CO2 for 4 days. Following incubation for 4 days, SYTOX green nucleic acid stain (Life Technologies [Thermo Fisher Scientific]) was added to the wells at a final concentration of 1 μM and incubated at room temperature for 30 min. Cells were then fixed using 4% formaldehyde (Electron Microscopy Sciences), washed 3 times with PBS followed by blocking and permeabilization using 3% Bovine Serum Albumin (BSA; Sigma) and 0.3% Triton X-100 (Sigma) in PBS.

[3] = system: SW480 colon carcinoma cells; assay: Cell viability assay (CellTiter-Glo); details: Homo sapiens; for EC50: SW480, 96 h; for inhibition at 10 µM: SW480, read-out: percent inhibition at 10 μM
Procedure: Representative compounds were screened using the assay procedure to assess the effect on cell viability as described below.
SW480 colon carcinoma cells were transduced with a lentiviral vector expressing luciferase with a human Sp5 promoter consisting of a sequence of eight TCF/LEF binding sites. […] These stably transduced SW480 cells were expanded in cell culture and used for all further screening activities. Each compound was dissolved in DMSO as a 10 mM stock and used to prepare compound source plates.
For the Cell Viability Assays, the cells were plated at 2,000 cells/well in 384-well plates with a DMEM medium containing 1% fetal bovine serum, and 1% Penicillin-Streptomycin and incubated for four days hours at 37° C. and 5% CO2. Eight replicates of DMSO-treated cells served as controls and cells treated with compound were performed in duplicate.
After incubation, 10 μL of CellTiter-Glo (Promega) was added to each well allowed to incubate for approximately 12 minutes. This reagent “results in cell lysis and generation of a luminescent signal proportional to the amount of ATP present. The amount of ATP is directly proportional to the number of cells present in culture, in agreement with previous reports. The CellTiter-Glo Assay generates a “glow-type” luminescent signal, produced by the luciferase reaction (Promega.com)”.
Dose-response curves were generated and EC50 concentration values were calculated using non-linear regression curve fit in the GraphPad Prism (San Diego, Calif.) or Dotmatics' Studies Software (Bishops Stortford, UK).

DYRK1A kinase = DYRK1A kinase (Homo sapiens, UniProt Q13627); assay: DYRK1A kinase activity (Ser/Thr 18 peptide Z-lyte FRET assay); format: biochemical; details: recombinant DYRK1A, 30 μM ATP, one hour at room temperature;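 note: kinase activity read as coumarin/fluorescein emission ratio after development step, with unphosphorylated and phosphorylated peptide forms setting 0% and 100% controls, values from dose-response curves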
[4] = system: Tau phosphorylation at Ser396 (pSer396); assay: Tau phosphorylation at Ser396 (pSer396) in SH-SY5Y cells, ELISA / western blot; format: cell-based, human; details: Homo sapiens; SH-SY5Y cells, overnight (16-18 h); read-out: pSer396 Tau EC50;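 note: decrease in pSer396 Tau measured in lysates of treated cells by colorimetric ELISA or chemiluminescent western blot, same pSer396 antibody for both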
Procedure: Two days before treatment, cells were seeded onto 96 well plates at 5×10^4 cells/well.
The above synthesized compounds were screened using the cell assay procedure to assess decrease Tau phosphorylation at Ser396 (pSer396) described below.
Cells were lysed with RIPA buffer complemented with phosphatase and protease inhibitors then lysates were spun down at 12,000 g for 10 min to remove any cellular debris.

[5] = system: secreted cytokines TNFα, IL-6 and KC-GRO; assay: Secreted cytokines in Lipopolysaccharide-stimulated BV-2 cells (Table 9 does not say which cytokine); format: cell-based, mouse; details: Mus musculus, BV-2, 5 h; read-out: EC50
GSK3β kinase = GSK3β kinase (Homo sapiens, UniProt P49841); assay: GSK3β kinase activity (Ser/Thr 09 peptide Z-lyte FRET assay); format: biochemical; details: recombinant kinase, 46 μM ATP, one hour at room temperature; read-out: EC50
Sequence of GSK3β kinase (P49841 whole entry): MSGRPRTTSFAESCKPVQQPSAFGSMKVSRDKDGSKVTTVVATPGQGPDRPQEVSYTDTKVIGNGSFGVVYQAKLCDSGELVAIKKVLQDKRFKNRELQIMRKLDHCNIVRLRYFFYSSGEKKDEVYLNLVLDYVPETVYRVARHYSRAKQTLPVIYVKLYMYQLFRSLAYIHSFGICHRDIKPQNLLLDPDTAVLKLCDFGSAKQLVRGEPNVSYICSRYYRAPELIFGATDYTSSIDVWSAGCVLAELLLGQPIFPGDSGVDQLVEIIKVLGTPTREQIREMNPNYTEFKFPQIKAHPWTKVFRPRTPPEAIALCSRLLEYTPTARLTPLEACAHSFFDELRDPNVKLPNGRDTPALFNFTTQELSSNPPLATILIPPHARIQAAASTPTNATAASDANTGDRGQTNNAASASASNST
Procedure: Each compound is dissolved in DMSO as a 10 mM stock and used to prepare compound source plates. Serial dilution (1:3, 11-point dose-response curves from 10 μM to 0.0003 μM) and compound transfer was performed using the ECHO 550 (Labcyte, Sunnyvale, Calif.) into 1536-well black-walled round bottom plates (Corning).
This is a non-radioactive assay using fluorescence resonance energy transfer (FRET) between coumarin and fluorescein to detect kinase activity which is represented as ratio of coumarin emission/fluorescein emission.
The mixture is allowed to incubate with the representative compounds for one hour at room temperature. All reactions were performed in duplicate. Unphosphorylated (“0% Control”) and phosphorylated (“100% control”) forms of Ser/Thr 18 serve as control reactions.
After incubation, diluted Development Buffer is added to the reaction and allowed to further incubate for one hour at room temperature.
Dose-response curves are generated and inhibitory concentration (IC50) values are calculated using non-linear regression curve fit in the Dotmatics' Studies Software (Bishops Stortford, UK).

## CN(C)[C@H]1CC[C@H](C(=O)Nc2cc3cc(-c4cncs4)ncc3cn2)CC1 [Compound 4239, trans-4-(dimethylamino)-N-(6-(thiazol-5-yl)-2,7-naphthyridin-3-yl) cyclohexane-1-carboxamide]
[1]
  EC50: > 10000 nM
  inhibition at 10 µM: 41.9%
IL-6
  EC50: > 10000 nM
  inhibition at 10 µM: 10.5%
[2]
  EC50: > 10000 nM
  inhibition at 10 µM: 50%
[3]
  EC50: > 10000 nM
  inhibition at 10 µM: 27.6%
DYRK1A kinase
  EC50: 5 nM
[4]
  EC50: 491 nM
[5]
  EC50: 1700 nM
GSK3β kinase
  EC50: 187 nM

## CN(CC(=O)Nc1ncc2ccc(-c3cnn(C)c3)cc2n1)C1CCC1 [Compound 963, 2-(Cyclobutyl(methyl)amino)-N-(7-(1-methyl-1H-pyrazol-4-yl)quinazolin-2-yl)acetamide]
[1]
  EC50: > 10000 nM
  inhibition at 10 µM: 11.8%
IL-6
  EC50: > 10000 nM
  inhibition at 10 µM: 5.4%
[2]
  EC50: 1570 nM
[3]
  EC50: > 10000 nM
  inhibition at 10 µM: 27.9%
DYRK1A kinase
  EC50: 45 nM
[4]
  EC50: 1620 nM
[5]
  EC50: 354 nM
GSK3β kinase
  EC50: 45 nM

## Cc1ncc(-c2ccc3cnc(NC(=O)[C@H]4C[C@H](N5CCOCC5)C4)cc3n2)o1 [Compound 556, trans-N-(2-(2-Methyloxazol-5-yl)-1,6-naphthyridin-7-yl)-3-morpholinocyclobutane-1-carboxamide]
[1]
  EC50: > 10000 nM
  inhibition at 10 µM: 41.3%
IL-6
  EC50: > 10000 nM
  inhibition at 10 µM: 4.9%
[2]
  EC50: > 10000 nM
  inhibition at 10 µM: 27.6%
[3]
  EC50: > 10000 nM
  inhibition at 10 µM: 29.4%
DYRK1A kinase
  EC50: 54 nM
[4]
  EC50: 487 nM
[5]
  EC50: 2200 nM
GSK3β kinase
  EC50: 86 nM

## O=C(Nc1cc2cc(-c3cnco3)cnc2cn1)C1CCN(C(=O)CN2CCCC2)CC1 [Compound 3249, N-(3-(Oxazol-5-yl)-1,7-naphthyridin-6-yl)-1-(2-(pyrrolidin-1-yl)acetyl)piperidine-4-carboxamide]
[1]
  EC50: > 10000 nM
  inhibition at 10 µM: 31.5%
IL-6
  EC50: 8320 nM
[2]
  EC50: 7060 nM
[3]
  EC50: > 10000 nM
  inhibition at 10 µM: 26.7%
DYRK1A kinase
  EC50: 26 nM
[4]
  EC50: 10000 nM
[5]
  EC50: 1200 nM
GSK3β kinase
  EC50: 6120 nM

## CC(C)CN1CCC(C(=O)Nc2cc3cc(-c4cnn(C)c4)cnc3cn2)CC1 [Compound 2736, 1-Isobutyl-N-(3-(1-methyl-1H-pyrazol-4-yl)-1,7-naphthyridin-6-yl) piperidine-4-carboxamide]
[1]
  EC50: > 10000 nM
  inhibition at 10 µM: 19.3%
IL-6
  EC50: > 10000 nM
  inhibition at 10 µM: 0%
[2]
  EC50: > 10000 nM
  inhibition at 10 µM: 17%
[3]
  EC50: > 10000 nM
  inhibition at 10 µM: 10.7%
DYRK1A kinase
  EC50: 30 nM
[4]
  EC50: > 10000 nM
[5]
  EC50: 109 nM
GSK3β kinase
  EC50: 3730 nM

## Cn1cc(-c2ccc3cnc(NC(=O)[C@H]4CC[C@H](NCCF)CC4)cc3n2)cn1 [Compound 4535, trans-4-((2-Fluoroethyl)amino)-N-(2-(1-methyl-1H-pyrazol-4-yl)-1,6-naphthyridin-7-yl) cyclohexane-1-carboxamide]
[1]
  EC50: 346 nM
IL-6
  EC50: 2860 nM
[2]
  EC50: > 10000 nM
  inhibition at 10 µM: 25%
[3]
  EC50: 4050 nM
DYRK1A kinase
  EC50: 9 nM
[4]
  EC50: 925 nM
[5]
  EC50: 162 nM
GSK3β kinase
  EC50: 188 nM

## Cn1cc(-c2cc3cc(NC(=O)CC4CNCCO4)ncc3cn2)cn1 (centres unmarked) [Compound 3714, N-(6-(1-Methyl-1H-pyrazol-4-yl)-2,7-naphthyridin-3-yl)-2-(morpholin-2-yl) acetamide]
[1]
  EC50: 845 nM
IL-6
  EC50: 5700 nM
[2]
  EC50: 1540 nM
[3]
  EC50: 6020 nM
DYRK1A kinase
  EC50: 10 nM
[4]
  EC50: 210 nM
[5]
  EC50: 1620 nM
GSK3β kinase
  EC50: 8 nM

## O=C(Nc1cc2cc(-c3cnn4c3CN(CCF)CC4)ncc2cn1)C1CCC(F)(F)CC1 [Compound 3944, 4,4-Difluoro-N-(6-(5-(2-fluoroethyl)-4,5,6,7-tetrahydropyrazolo[1,5-a]pyrazin-3-yl)-2,7-naphthyridin-3-yl)cyclohexane-1-carboxamide]
[1]
  EC50: 962 nM
IL-6
  EC50: > 10000 nM
  inhibition at 10 µM: 22.2%
[2]
  EC50: 416 nM
[3]
  EC50: 7300 nM
DYRK1A kinase
  EC50: 6 nM
[4]
  EC50: 428 nM
[5]
  EC50: 471 nM
GSK3β kinase
  EC50: 18 nM

## Cn1ncc(-c2ccc3cnc(NC(=O)C4CC5(C4)CN(CCF)C5)nc3c2)c1CN1CCCCC1 [Compound 1186, 2-(2-Fluoroethyl)-N-(7-(1-methyl-5-(piperidin-1-ylmethyl)-1H-pyrazol-4-yl)quinazolin-2-yl)-2-azaspiro[3.3]heptane-6-carboxamide]
[1]
  EC50: > 10000 nM
  inhibition at 10 µM: 35.8%
IL-6
  EC50: > 10000 nM
  inhibition at 10 µM: 6.7%
[2]
  EC50: > 10000 nM
  inhibition at 10 µM: 24.5%
[3]
  EC50: > 10000 nM
  inhibition at 10 µM: 35.2%
DYRK1A kinase
  EC50: 42 nM
[4]
  EC50: 5400 nM
[5]
  EC50: 5600 nM
GSK3β kinase
  EC50: 402 nM

## Cc1cn2c(n1)CN(C(=O)Nc1cc3nc(-c4cnc(C)o4)ccc3cn1)CC2 [Compound 585, 2-Methyl-N-(2-(2-methyloxazol-5-yl)-1,6-naphthyridin-7-yl)-5,6-dihydroimidazo[1,2-a]pyrazine-7(8H)-carboxamide]
[1]
  EC50: 2080 nM
IL-6
  EC50: > 10000 nM
  inhibition at 10 µM: 9.4%
[2]
  EC50: 2510 nM
[3]
  EC50: 2690 nM
DYRK1A kinase
  EC50: 9 nM
[4]
  EC50: 374 nM
[5]
  EC50: 257 nM
GSK3β kinase
  EC50: 109 nM

## Cn1cc(-c2cc3cc(NC(=O)CCc4ccccc4)ncc3cn2)cn1 [Compound 3821, N-(6-(1-Methyl-1H-pyrazol-4-yl)-2,7-naphthyridin-3-yl)-3-phenylpropanamide]
[1]
  EC50: 176 nM
IL-6
  EC50: 8410 nM
[2]
  EC50: 313 nM
[3]
  EC50: 231 nM
DYRK1A kinase
  EC50: 7 nM
[4]
  EC50: 29 nM
[5]
  EC50: 244 nM
GSK3β kinase
  EC50: 1 nM

## Cn1ncc(-c2cnc3cnc(NC(=O)C4CC5(C4)CN(CCF)C5)cc3c2)c1CN1CCCCC1 [Compound 3000, 2-(2-Fluoroethyl)-N-(3-(1-methyl-5-(piperidin-1-ylmethyl)-1H-pyrazol-4-yl)-1,7-naphthyridin-6-yl)-2-azaspiro[3.3]heptane-6-carboxamide]
[1]
  EC50: 1950 nM
IL-6
  EC50: 2260 nM
[2]
  EC50: 9890 nM
[3]
  EC50: 5950 nM
DYRK1A kinase
  EC50: 10 nM
[4]
  EC50: 1830 nM
[5]
  EC50: 307 nM
GSK3β kinase
  EC50: 166 nM

## CC(C)CN1CCC(CC(=O)Nc2cc3nc(-c4cnn(C)c4)ccc3cn2)C1 (centres unmarked) [Compound 122, 2-(1-Isobutylpyrrolidin-3-yl)-N-(2-(1-methyl-1H-pyrazol-4-yl)-1,6-naphthyridin-7-yl)acetamide]
[1]
  EC50: 2540 nM
IL-6
  EC50: 3170 nM
[2]
  EC50: 4020 nM
[3]
  EC50: 3110 nM
DYRK1A kinase
  EC50: 16 nM
[4]
  EC50: 481 nM
[5]
  EC50: 590 nM
GSK3β kinase
  EC50: 70 nM

## Cn1cc(-c2cc3cc(NC(=O)C4CCN(CCC(F)(F)F)CC4)ncc3cn2)cn1 [Compound 3646, N-(6-(1-Methyl-1H-pyrazol-4-yl)-2,7-naphthyridin-3-yl)-1-(3,3,3-trifluoropropyl)piperidine-4-carboxamide]
[1]
  EC50: 219 nM
IL-6
  EC50: 9040 nM
[2]
  EC50: > 10000 nM
  inhibition at 10 µM: 12.9%
[3]
  EC50: 9580 nM
DYRK1A kinase
  EC50: 2 nM
[4]
  EC50: 79 nM
[5]
  EC50: > 10000 nM
GSK3β kinase
  EC50: 4 nM
